Assay results taken from patent US20160015770A1, “COMPOSITIONS FOR TREATMENT OF RETINAL DETACHMENT” (THE REGENTS OF THE UNIVERSITY OF MICHIGAN, priority 2013, published 2016).
Non-standard residues stand in square brackets, D forms with d. Residues, ends and D or L forms follow the SMILES beside them. *: point of attachment. Nle = CCCC[C@H](N)C(=O)O; Cbz = O=C(OCc1ccccc1)*

Assays:
detached retina [1] = test: Experimental retinal detachment, western blot of autophagy markers (Atg5, Atg5-12, LC3-II) in retina; format: in vivo; conditions: rat, 50 μg subretinal at time of detachment, 7 days, vs detachments alone
Procedure: All experiments were performed in accordance with the ARVO Statement for the Use of Animals in Ophthalmic and Vision Research and the guidelines established by the University Committee on Use and Care of Animals of the University of Michigan. Detachments were created in adult male Brown-Norway rats (300-400 g; Charles River Laboratories, Wilmington, Mass.) as described previously. Briefly, rodents were anesthetized with a 50:50 mix of ketamine/xylazine, and pupils were dilated with topical phenylephrine (2.5%) and tropicamide (1%). A 20-gauge microvitreoretinal blade was used to create a sclerotomy 2 mm posterior to the limbus, carefully avoiding lens damage. A subretinal injector (Glaser, 32-gauge tip; BD Ophthalmic Systems, Franklin Lakes, N.J.) was introduced through the sclerotomy into the vitreous cavity and then through a peripheral retinotomy into the subretinal space. Sodium hyaluronate (10 mg/mL, Healon OVD; Abbott Medical Optics, Uppsala, Sweden) was slowly injected to detach the neurosensory retina from the underlying RPE. In all experiments, approximately one third to one half of the neurosensory retina was detached. Detachments were created in the left eye. The right eye served as the control, with all the steps of the procedure performed except for introduction of the subretinal injector and injection of the sodium hyaluronate. […]
Retinas from experimental eyes with detachment (detached portion of retina only) and control eyes without detachment were dissected from the RPE-choroid, homogenized, and lysed in buffer containing 10 mM HEPES (pH 7.6), 0.5% IgEPal, 42 mM KCl, 1 mM phenylmethylsulfonyl fluoride, 1 mM EDTA, 1 mM EGTA, 1 mM dithiothreitol, 5 mM MgCl2, and one tablet of protease inhibitors per 10 mL buffer (Complete Mini; Roche Diagnostics GmbH, Madison, Wis.). […] The protein concentration of the supernatant was then determined (DC Protein Assay kit; Bio-Rad Laboratories, Hercules, Calif.). The protein samples were separated on SDS-polyacrylamide gels (Tris-HCl Ready Gels; Bio-Rad Laboratories). […]

detached retina [2] = conditions: 7 days, compared to untreated detached retinas, prior work (ref 12); cited from earlier work
calpain 1 = molecular target: T1, calpain 1 (Mus musculus, UniProt O35350); test: Western blot of calpain 1 specific cleaved alpha-spectrin in 661W cells treated with Fas activating antibody; format: cell-based; conditions: 24 hours, inhibitor added 1 hour before Fas activating antibody, compared to Fas activation alone
T1 construct: endogenous in cells; host or cells: 661W mouse photoreceptor cell line
T1 sequence (O35350 1-713): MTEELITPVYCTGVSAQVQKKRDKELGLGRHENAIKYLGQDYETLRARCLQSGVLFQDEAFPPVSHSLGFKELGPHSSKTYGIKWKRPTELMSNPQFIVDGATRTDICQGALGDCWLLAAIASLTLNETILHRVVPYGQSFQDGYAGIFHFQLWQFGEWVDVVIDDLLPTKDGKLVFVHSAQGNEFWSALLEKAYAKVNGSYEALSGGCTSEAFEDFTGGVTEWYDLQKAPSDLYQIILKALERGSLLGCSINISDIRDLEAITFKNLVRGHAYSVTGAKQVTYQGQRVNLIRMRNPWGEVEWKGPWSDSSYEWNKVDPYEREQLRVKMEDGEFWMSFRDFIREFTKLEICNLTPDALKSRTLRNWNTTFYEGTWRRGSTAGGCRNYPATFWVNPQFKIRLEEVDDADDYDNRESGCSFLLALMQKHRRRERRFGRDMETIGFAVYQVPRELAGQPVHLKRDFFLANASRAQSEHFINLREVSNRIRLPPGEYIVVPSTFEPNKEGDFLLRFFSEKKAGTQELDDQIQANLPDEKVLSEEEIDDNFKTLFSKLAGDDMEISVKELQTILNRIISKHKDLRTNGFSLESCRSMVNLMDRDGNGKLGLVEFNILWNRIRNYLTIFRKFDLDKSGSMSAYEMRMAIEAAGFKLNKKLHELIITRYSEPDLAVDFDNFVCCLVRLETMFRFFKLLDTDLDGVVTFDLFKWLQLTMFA
T1 sequence (O88456 1-268 partner): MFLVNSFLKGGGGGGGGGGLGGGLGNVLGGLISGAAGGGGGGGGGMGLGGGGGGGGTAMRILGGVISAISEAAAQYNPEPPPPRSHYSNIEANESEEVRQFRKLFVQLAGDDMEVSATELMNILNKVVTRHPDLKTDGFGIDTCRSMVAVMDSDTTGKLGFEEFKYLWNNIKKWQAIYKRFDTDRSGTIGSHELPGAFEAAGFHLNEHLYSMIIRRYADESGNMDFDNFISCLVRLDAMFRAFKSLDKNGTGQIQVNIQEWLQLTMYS
Procedure: The 661W photoreceptor cell line was generously provided by Dr. Muayyad Al-Ubaidi (Department of Cell Biology, University of Oklahoma Health Sciences Center, Oklahoma City, Okla.). The 661W cell line was maintained in Dulbecco's modified Eagle's medium containing 10% fetal bovine serum, 300 mg/L glutamine, 32 mg/L putrescine, 40 μL/L β-mercaptoethanol, and 40 μg/L of both hydrocortisone 21-hemisuccinate and progesterone. The media also contained penicillin (90 units/mL) and streptomycin (0.09 mg/mL). Cells were grown at 37° C. in a humidified atmosphere of 5% CO2 and 95% air.
Retinas from experimental eyes with detachment (detached portion of retina only) and control eyes without detachment were dissected from the RPE-choroid, homogenized, and lysed in buffer containing 10 mM HEPES (pH 7.6), 0.5% IgEPal, 42 mM KCl, 1 mM phenylmethylsulfonyl fluoride, 1 mM EDTA, 1 mM EGTA, 1 mM dithiothreitol, 5 mM MgCl2, and one tablet of protease inhibitors per 10 mL buffer (Complete Mini; Roche Diagnostics GmbH, Madison, Wis.). 661W cells were plated at 150,000 cells per well in six-well culture dishes in growth media. After 24 hours, the cells were washed one time with warmed PBS solution and then placed in growth media without fetal bovine serum. Depending on experimental conditions, 500 ng/mL Fas activating antibody (BD Biosciences, San Jose, Calif.) and various calpain inhibitors including MDG-28170 (Sigma, St. Louis, Mo.), MG-101 (Sigma, St. Louis, Mo.), calpeptin (Santa Cruz Biotechnology, Santa Cruz, Calif.) or equal volume of DMSO was added. Calpain inhibitors were added 1 hour prior to the addition of Fas activating antibody. The cells were incubated for various lengths of time and then lysed and homogenized in lysis buffer. The homogenates were incubated on ice and centrifuged at 22,000 g at 4° C. for 60 minutes. The protein concentration of the supernatant was then determined (DC Protein Assay kit; Bio-Rad Laboratories, Hercules, Calif.). The protein samples were separated on SDS-polyacrylamide gels (Tris-HCl Ready Gels; Bio-Rad Laboratories). After electrophoretic separation, the proteins were transferred onto polyvinylidene fluoride membranes (Immobilon-P; Millipore, Billerica, Mass.). Membranes were then immunoblotted with antibodies according to the manufacturer's instructions. The following antibodies were used: LC3b (Cell Signaling, Beverly, Mass.), Atg5 (Abgent, San Diego, Calif.), Atg12 (Cell Signaling, Beverly, Mass.), calpain 1 (Cell Signaling, Beverly, Mass.), alpha-spectrin (Santa Cruz Biotechnology, Santa Cruz, Calif.), actin (Sigma, St. Louis, Mo.), and GAPDH (Abcam, Cambridge, Mass.).
After determining calpain 1 levels, it was looked to correlate this with calpain activity. […]

Row | cleaved alpha-spectrin levels (calpain 1) | Compound | Atg5-12 levels in retina (detached retina [1]) | Atg5-12 levels in retina (detached retina [1]; listed as Baf-a) | LC3-II level in retina (detached retina [2])
1 |  | CO/C1=C\C(C)=C\[C@@H](C)[C@@H](O)[C@@H](C)C/C(C)=C/C=C/[C@H](OC)[C@@H]([C@@H](C)[C@@H](O)[C@H](C)[C@@]2(O)C[C@@H](O)[C@H](C)[C@@H](C(C)C)O2)OC1=O [Bafilomycin-a] | did not appear to be any increase | no significant difference | remain elevated
2 | decreased | CCCC[C@@H](C=O)NC(=O)[C@H](CC(C)C)NC(=O)[C@H](CC(C)C)NC(C)=O [MG-101] (Ac-Leu-Leu-[Nle]-aldehyde) |  |  | 
3 | decreased | CC(C)[C@H](NC(=O)OCc1ccccc1)C(=O)N[C@H](C=O)Cc1ccccc1 [MDG-28170] (Cbz-Val-Phe-aldehyde) |  |  | 
